Experimental data: patent US20210161913A1, “OXYGENATED CHOLESTEROL SULFATES FOR THERAPY OF DISORDERS CAUSED BY AT LEAST ONE OF ATTENUATED LEPTIN ACTIVITY AND A LIPID STORAGE DISORDER” (Virginia Commonwealth University, priority 2015, published 2021)

What was measured:
[1] = tested on: THP-1 macrophages; conditions: Ma et al., 2008, Ren et al., 2007, Xu et al., 2010; cited from earlier work
[2] = tested on: leptin-deficient (obese fa/fa) Zucker rats; assay: Quantification of hepatic lipids in Zucker rats; format: in vivo, rat; conditions: 21 days
Excerpt: (§1) To examine the effect of 25HC3S on lipid accumulation in sera and in the liver in a leptin-deficient (obese fa/fa) animal model (Zucker rats), 11 week old Zucker rats (Charles River, Wilmington, Mass.) were randomly assigned into four groups. Obese fa/fa Zucker rats have a defective leptin receptor and serve as a general animal model for deficiencies in leptin activity, whether due to low leptin levels, congenital defects in the leptin receptor or acquired leptin resistance, since all result in inadequate or faulty leptin activity. Further, these animals develop unwanted lipid accumulation after several weeks of life due to a genetic mutation in the leptin receptor. All rats were housed under identical conditions with a 12-hour light/12-hour dark cycle and given free access to water and food. The rats (n=5 in each treatment) were gavaged orally with vehicle (10% cellulose) or 25HC3S (10 mg/kg, 30 mg/kg, and 100 mg/kg) once a day for 21 days and fasted overnight (14 hrs) before collection of samples. To compare with gavage administration, other rats (n=10-17 in each treatment) were intraperitoneally injected with vehicle solution (ethanol/PBS; vehicle) or 25HC3S (50 mg/kg) once every three days for 6 weeks and fasted overnight (14 hrs). Blood samples were collected before sacrifice. Serum triglyceride (TG), total cholesterol (CHOL), high density lipoprotein-cholesterol (HDL-C), alkaline phosphatase (ALK), alanine aminotransferase (ALT), and aspartate aminotransferase (AST) were measured using standard enzymatic techniques. Lipoprotein profiles in sera were analyzed by HPLC in the following descriptions.
Liver tissues were homogenized, and the hepatic total lipids were extracted using a mixture of chloroform and methanol (2:1, v:v). After the extracts were filtered, 0.2 ml of each was evaporated to dryness and dissolved in 100 μl of isopropanol containing 10% Triton™ X-100 for cholesterol assay (Wako Chemicals USA, Richmond, Va.), 100 μl of NEFA solution (0.5 g of EDTA-Naz, 2 g of Triton™ X-100, 0.76 ml of 1N NaOH, and 0.5 g of sodium azide/1, pH 6.5) for the free fatty acid assay (Wako Chemicals USA, Richmond, Va.), or 100 μl of isopropanol only for the triglyceride assay (Fisher Scientific, Pittsburgh, Pa.). Each lipid concentration was normalized by liver weight.

[3] = tested on: primary hepatocytes; conditions: Ma et al., 2008, Ren et al., 2007, Xu et al., 2010; cited from earlier work
[4] = tested on: leptin-deficient (obese fa/fa) Zucker rats; assay: Serum lipid levels in leptin-deficient (obese fa/fa) Zucker rats after 25HC3S administration; format: in vivo, rat
Excerpt: as §1, with “descriptions. The lipoproteins, triglycerides and cholesterol in very low density lipoprotein (VLDL), low-density lipoprotein (LDL) and high-density lipoprotein (HDL) were measured by gel filtration using HPLC as previously described (Bai et al., 2012). Briefly, rat serum (100 μl) was eluted with a solvent of 154 mM NaCl with 0.1 mM EDTA (pH 8.0) at a flow rate of 0.2 ml/min via a Pharmacia Superose 6 HR 10/30 FPLC column, and the signal was read at a wavelength of 280 nm. Fractions were collected for 1.2 min each from 20 min up to 100 min. 180 μl of each fraction plus 20 μl of a 10× solution of Wako Total Cholesterol E Reagent (Wako Chemicals USA, Richmond, Va.) was incubated in a 96-well plate at 37° C. for 3 hrs in the dark to analyze cholesterol levels, and the absorbance was read at a wavelength of 595 nm. 2 μl of each fraction plus 200 μl of Infinity™ Triglycerides Reagent (Fisher Scientific, Pittsburgh, Pa.) was incubated in a 96-well plate at 37° C. for 5 minutes in dark to analyze triglyceride levels, and the absorbance was read at a wavelength of 500 nm. The lipoprotein profile was monitored as an internal control.” for “descriptions.”

[5] = tested on: leptin-deficient (obese fa/fa) Zucker rats; assay: Liver histo-morphology (HE and Oil Red O staining), hepatic lipidosis in Zucker rats; format: in vivo, rat; set-up: key to Force Rank (Oil Red O): 1 = least severe; 5 = most severe; conditions: for Force Rank (Oil Red O) / Severity of Hepatic Lipidosis: N = 5 males
Excerpt: as §1, with “descriptions. Three specimens from different regions of the liver of each rat were collected and fixed in 4% paraformaldehyde in 0.1 M phosphate buffer at room temperature overnight. The regions of the specimens were standardized for all rats. The paraffin-embedded tissue sections (4 μm) were stained with hematoxylin and eosin (HE). 3-3′-Diaminobenzidine (DAB) was used as the chromogen, and hematoxylin was used as the nuclear counterstain. Determination of total intracellular lipids: Oil Red O staining of intracellular neutral lipids: the liver slides were fixed with 3.7% formaldehyde in PBS for 30 min followed by two washes with phosphate-buffered saline (PBS). The cells were stained with 0.2% Oil Red O in 60% 2-propanol for 10 min and washed three times with PBS. The images were taken with the use of a microscope (Olympus, Tokyo, Japan) equipped with image recorder under 40× lenses. All slides of tissue were qualitatively examined by light microscopy by a board certified veterinary pathologist. The incidence and severity of the lesions were scored. Lesions were also assessed for duration and distribution.” for “descriptions.”

[6] = gavage 10 mg/kg, normalized by liver weight
[7] = gavage administration once a day for 21 days, fasted overnight, vs vehicle
[8] = intraperitoneal administration, 50 mg/kg once every three days

CC(CCCC(C)(C)O)C1CCC2C3CC=C4CC(OS(=O)(=O)O)CCC4(C)C3CCC12C (stereo not shown) [25HC3S, 5-cholesten, 3-, 25-diol, 3-sulfate]
lipid accumulation [1]: reduce lipid accumulation
liver free cholesterol concentration ([2]; administration of 25HC3S): not affected
reduction of liver tissue free fatty acids [2, 6]: 26%
reduction of liver tissue total cholesterol [2, 6]: 25%
reduction of liver tissue triglyceride [2, 6]: 43%
lipid accumulation [3]: reduce lipid accumulation
decrease of plasma CHOL [4, 7]: 17%
decrease of plasma TG [4, 7]: 30%
change in HDL levels ([4]; gavage administration, 21 days): no significant change
change in LDL levels ([4]; gavage administration, 21 days): no significant change
serum HDL [4, 8]: significantly decreased
serum total cholesterol [4, 8]: significantly decreased
serum triglyceride [4, 8]: significantly decreased
Force Rank (Oil Red O) ([5]; 10 mg/kg/day gavage): 4
Severity of Hepatic Lipidosis ([5]; 10 mg/kg/day gavage): Mild to moderate
Force Rank (Oil Red O) ([5]; 30 mg/kg/day gavage): 3
Severity of Hepatic Lipidosis ([5]; 30 mg/kg/day gavage): Mild to moderate
Force Rank (Oil Red O) ([5]; 50 mg/kg IP every 3 days): 2
Severity of Hepatic Lipidosis ([5]; 50 mg/kg IP every 3 days): Mild
Force Rank (Oil Red O) ([5]; 100 mg/kg/day gavage): 1
Severity of Hepatic Lipidosis ([5]; 100 mg/kg/day gavage): Mild
lipid inclusions in hepatocytes (HE stained liver sections) ([5]; 10, 30 and 100 mg/kg PO (FIGS. 3B, C, D) vs control rats): significantly decreased
